Measurements taken from patent US4057644A, “Active derivatives of methylamine in therapeutic compositions and methods of use” (priority 1976, dated 1977).
Where two headings read alike, the source gives them in different places.

Legend:
[1] = tested on: tremorine-induced cholinergic effects; assay: Anti-tremorine test; type: in vivo, mice (male, OF1 strain); design: key to central cholinergic effects score (normal and provoked tremor): 0: no action; 1: slight action; 2: average action; 3: strong action; 4: very strong action; conditions: for central cholinergic effects score (normal and provoked tremor): 20, 30 and 40 minutes after tremorine, printed as identical results; for antitremorine properties: mice, oral
Description: When injected into mice, tremorine produces peripheral effects i.e. weeping, sweating, salivation and diarrhoea and central effects i.e. tremor and akinesia. Such effects are due to an increase in the amount of intracerebral acetylcholine and serotonine.
Male mice of the OF1 strain weighing about 22 g were divided into batches of 10. […] Thirty minutes later a dose of 10 mg/kg of tremorine was injected by intraperitoneal route and, at different times after this injection, note was taken of the cholinergic effects on each animal in accordance with the following scale: […]

[2] = tested on: norepinephrine effects on arterial pressure and nictitating membrane; conditions: in vivo, iv
electrocardiogram = assay: Electrocardiogram; type: in vivo; conditions: dog, injected, 5 mg/kg
[3] = tested on: norepinephrine effects on arterial pressure and nictitating membrane; assay: Influence on peripheral noradrenergic phenomena (arterial pressure, nictitating membrane); conditions: cat; for Contractile reaction of the nictitating membrane with electric stimulation / Contractile reaction of the nictitating membrane without electric stimulation / Increase in arterial pressure after injection of norepinephrine: i.v.
[4] = tested on: neuroleptic-induced catatonia (prochlorperazine); assay: Inhibition of neuroleptic-induced catatonia; type: in vivo, rat (male, OFA strain); conditions: rat, oral; for activity compared with amantadine (neuroleptic-induced catatonia): versus amantadine
Description: The blocking of dopaminergic receptors by neuroleptics in the extra-pyramidal system induces catatonia in the rat. Catatonia is differentiated from sedative properties by means of the test used hereabove for reserpine-induced catatonia. The same system of scoring was also employed in the present case.
An oral dose of the compound to be studied in aqueous solution was administered to batches of 10 male rats of the OFA strain weighing about 150 to 200 g.
Three hours after the injection of this latter compound, catatonia was measured. An identical trial was also carried out with control animals which received prochlorperazine but none of the compounds under study.

[5] = tested on: reserpine-induced catatonia; assay: Inhibition of reserpine-induced catatonia; type: in vivo, rat (male, OFA strain); conditions: rat
Description: Ater sufficient doses of reserpine have been administered to the rat, a series of symptoms occur, more particularly ptosis, catatonia and a drop in central temperature. These symptoms are caused by the depletion of the intrangranular reserve pool of biogenetic amines at the synaptic terminals.
An oral dose of the compound to be studied in aqueous solution was administered to batches of 10 male rats of the OFA strain weighing about 150 to 200 g. Thirty minutes later a dose of 5 mg/kg of reserpine was given by intraperitoneal route. Three hours after the injection of reserpine, the animals were suspended by the four paws to a horizontally stretched wire fixed at 15 cm from the ground. The catatonic animals were those which maintained the position so given for at least 30 seconds. […] The maximum score was therefore 10 per batch. An identical trial was undertaken with control animals which received reserpine but none of the compounds being studied.

[6] = J. Amer. Chem. Soc., 71, 3352 (1949); cited from earlier work
[7] = tested on: neuroleptic-induced catatonia (prochlorperazine); assay: Suppression of neuroleptic-induced catatonia (curative treatment); type: in vivo, rat (male, OFA strain); conditions: 5 mg/kg, versus amantadine 80 mg/kg
Description: Fifty-five minutes later, an oral dose in aqueous solution of the compound to be studied was administered to all the animals with the exception of the control group. The progress of the catatonia was noted following the same scale as that used in the tests described above.

[8] = J. Amer. Chem. Soc., 71, 3352 (1949); cited from earlier work; remark: listed apart in the source
[9] = tested on: isolated duodenum of the rat; assay: MAGNUS test, inhibition of acetylcholine spasm in vitro (cholinolytic/spasmolytic)
Excerpt: This test consists in determining the dose of acetylcholine which, when added to the bath, provokes spasm of the isolated duodenum of the rat. The next step consists in determining the dose of the compound under study which, when added to the bath 30 seconds before the acetylcholine, reduces the spasm.

catalepsy = assay: Inhibition of prochlorperazine-induced catalepsy (crossing of homolateral paws); type: in vivo; conditions: Rattus norvegicus, po, 3 h, read-out: dose giving complete inhibition of the catalepsy
Excerpt: […]. These trails involved catalepsy as evidenced by the crossing of the animal's homolateral paws.

[10] = Spasmolytic activity in vivo; conditions: at doses well below the toxic dose
[11] = Anti-cholinergic (cholinolytic) activity
[12] = tested on: reserpine-induced catatonia; assay: Suppression of reserpine-induced catatonia (curative treatment); type: in vivo, rat (male, OFA strain); conditions: 2.5 and 5 mg/kg oral, versus amantadine 80 mg/kg
Description: Batches of 5 male rats of the OFA strain, weighing 150 to 200 g were given 5 mg/kg of reserpine by intraperitoneal route. One hour and 45 minutes later, namely when the animals were in state of catatonia, an aqueous dose of the compound to be studied was administered by oral route to all the animals with the exception of the control group.
The progress of the catatonia was then noted following the scale used in the tests described hereabove.
The maximum score was thus 5 per batch which means that all the animals of the batch were considered to be still in a state of catatonia.

mice = conditions: for Index LD50/ED20-30: LD50 mice oral / dose giving 20 to 30% inhibition of catatonia; for Index LD50/ED100: LD50 mice oral / dose giving 100% inhibition of catatonia
in vivo = conditions: mouse, po
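Wherever Index LD50/ED100 is given: LD50 part of every column derived from compounds dosed in aqueous solution, deaths followed over a 10-day observation period after dosing.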
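Wherever Index LD50/ED20-30 is given: LD50 part of every column derived from compounds dosed in aqueous solution, deaths followed over a 10-day observation period after dosing.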
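Wherever LD50 is given: LD50 part of every column derived from compounds dosed in aqueous solution, deaths followed over a 10-day observation period after dosing.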

SMILES: NC12CC3CC(CC(C3)C1)C2 [Amantadine, 1-amino-adamantane]
- central cholinergic effects score (normal and provoked tremor) ([1]; 40 mg/kg oral): 4
- antitremorine properties [1]: devoid of antitremorine properties
- dose from which exogenous norepinephrine is potentiated ([2]; cat): ≥ 1 mg/kg
- dose from which ganglioplegic properties are shown ([2]; cat): ≥ 5 mg/kg
- Contractile reaction of the nictitating membrane with electric stimulation ([2]; 0.1 mg/kg): 20 mm
- Contractile reaction of the nictitating membrane without electric stimulation ([2]; 0.1 mg/kg): 0 mm
- Increase in arterial pressure after injection of norepinephrine ([2]; 0.1 mg/kg): 29 mm Hg
- Contractile reaction of the nictitating membrane with electric stimulation ([2]; 1 mg/kg): 20 mm
- Contractile reaction of the nictitating membrane without electric stimulation ([2]; 1 mg/kg): 3 mm
- Increase in arterial pressure after injection of norepinephrine ([2]; 1 mg/kg): 35 mm Hg
- Contractile reaction of the nictitating membrane with electric stimulation ([2]; 3 mg/kg): 16 mm
- Contractile reaction of the nictitating membrane without electric stimulation ([2]; 3 mg/kg): 4.4 mm
- Increase in arterial pressure after injection of norepinephrine ([2]; 3 mg/kg): 35 mm Hg
- Contractile reaction of the nictitating membrane with electric stimulation ([2]; 5 mg/kg): 10 mm
- Contractile reaction of the nictitating membrane without electric stimulation ([2]; 5 mg/kg): 5.9 mm
- Increase in arterial pressure after injection of norepinephrine ([2]; 5 mg/kg): 59 mm Hg
- Contractile reaction of the nictitating membrane with electric stimulation ([2]; 10 mg/kg): 4 mm
- Contractile reaction of the nictitating membrane without electric stimulation ([2]; 10 mg/kg): 7.5 mm
- Increase in arterial pressure after injection of norepinephrine ([2]; 10 mg/kg): 57 mm Hg
- effect on the electrocardiogram / cardiac rhythm (electrocardiogram): provokes cardiac arrhythmia due to ventricular extrasystoles
- own effect on contractile reactions of the nictitating membrane [3]: stimulates the contractile reactions of the nictitating membrane
- potentiation of exogenous norepinephrine / peripheral adrenergic effects [3]: potentiates the peripheral adrenergic effects
- potentiation of the effects of the electric stimulation [3]: does not potentiate

SMILES: CCCC(N)(CCC)CCC [Compound 1]
- central cholinergic effects score (normal and provoked tremor) ([1]; 5 mg/kg oral): 4
- antitremorine properties [1]: devoid of antitremorine properties
- activity compared with amantadine (neuroleptic-induced catatonia) [4]: twenty times more active
- degree of activity (pharmacological trials) ([5]; in vivo): marked degree of activity
- dose of equal activity compared with amantadine (reserpine-induced catatonia) ([5]; oral, versus amantadine): twenty times inferior
- spasmolytic activity versus the corresponding trialkylethylamines [6]: less spasmolytic
- rapidity of action against neuroleptic-induced catatonia [7]: more rapidly
- toxicity versus the corresponding trialkylethylamines [8]: more toxic
- spasmolytic / cholinolytic activity in vitro [9]: virtually non-existent
- spasmolytic / cholinolytic activity in vitro ([9]; listed as tri-n-propylmethylamine): very weak, in fact practically non-existent
- potentiation of endogenous norepinephrine [3]: does not potentiate
- potentiation of exogenous norepinephrine / peripheral adrenergic effects [3]: does not potentiate
- Contractile reaction of the nictitating membrane with electric stimulation ([3]; cumulative dose 0.1 mg/kg): 15 mm
- Contractile reaction of the nictitating membrane without electric stimulation ([3]; cumulative dose 0.1 mg/kg): 0 mm
- Increase in arterial pressure after injection of norepinephrine ([3]; cumulative dose 0.1 mg/kg): 18 mm Hg
- Contractile reaction of the nictitating membrane with electric stimulation ([3]; cumulative dose 1 mg/kg): 16 mm
- Contractile reaction of the nictitating membrane without electric stimulation ([3]; cumulative dose 1 mg/kg): 0 mm
- Increase in arterial pressure after injection of norepinephrine ([3]; cumulative dose 1 mg/kg): 25 mm Hg
- Contractile reaction of the nictitating membrane with electric stimulation ([3]; cumulative dose 3 mg/kg): 17 mm
- Contractile reaction of the nictitating membrane without electric stimulation ([3]; cumulative dose 3 mg/kg): 0 mm
- Increase in arterial pressure after injection of norepinephrine ([3]; cumulative dose 3 mg/kg): 29 mm Hg
- Contractile reaction of the nictitating membrane with electric stimulation ([3]; cumulative dose 5 mg/kg): 16 mm
- Contractile reaction of the nictitating membrane without electric stimulation ([3]; cumulative dose 5 mg/kg): 0 mm
- Increase in arterial pressure after injection of norepinephrine ([3]; cumulative dose 5 mg/kg): 25 mm Hg
- Contractile reaction of the nictitating membrane with electric stimulation ([3]; cumulative dose 10 mg/kg): 12 mm
- Contractile reaction of the nictitating membrane without electric stimulation ([3]; cumulative dose 10 mg/kg): 0 mm
- Increase in arterial pressure after injection of norepinephrine ([3]; cumulative dose 10 mg/kg): 22 mm Hg
- potentiation of exogenous norepinephrine / peripheral adrenergic effects ([3]; listed as preferred compound of the invention): does not potentiate the peripheral effects of norepinephrine
- ED100 (catalepsy): 5 mg/kg
- spasmolytic activity in vivo [10]: non-existent
- anti-cholinergic (cholinolytic) activity [11]: devoid of anti-cholinergic activity
- rapidity of suppression of reserpine-induced catatonia [12]: more rapidly

SMILES: CCCC(N)(CC)CCC [Compound 2, 1-Ethyl-1-n-propyl-n-butylamine]
- Inhibition of the neuroleptic-induced catatonia ([4]; 5 mg/kg): 1 (represents 20 to 30% inhibition of catatonia in comparison with the controls (namely a score of 7 to 8 per studied batch))
- Index LD50/ED20-30 (mice): 30

SMILES: CCCC(N)(CCC)CC(C)C [Compound 5, 1-n-Propyl-1-isobutyl-n-butylamine]
- activity compared with amantadine (neuroleptic-induced catatonia) [4]: five times more active
- Inhibition of reserpine-induced catatonia ([5]; oral, 20 mg/kg): 2 (represents 50% inhibition of catatonia in comparison with the controls (namely a score of 5 per studied batch))

SMILES: CCCCC(N)(CCCC)CCCC [Compound 12, 1,1-Di-n-butyl-n-pentylamine]
- spasmolytic activity versus the corresponding trialkylethylamines [6]: less spasmolytic
- Index LD50/ED20-30 (mice): 25
- toxicity versus the corresponding trialkylethylamines [8]: more toxic

SMILES: CCCC(CCC)(CCC)NC [Compound 27, N-methyl-1,1-di-n-propyl-n-butylamine]
- Inhibition of the neuroleptic-induced catatonia ([4]; 6 mg/kg): 3 (represents 70 to 80% inhibition of catatonia in comparison with the controls (namely a score of 2 or 3 per studied batch))
- Index LD50/ED100 (mice): 16.5
- LD50 at 240 h (in vivo): 100 mg/kg

SMILES: CCCC(CCC)(NC)C(C)C [Compound 30, N-methyl-1-n-propyl-1-isopropyl-n-butylamine]
- Inhibition of the neuroleptic-induced catatonia ([4]; 6 mg/kg): 3 (represents 70 to 80% inhibition of catatonia in comparison with the controls (namely a score of 2 or 3 per studied batch))
- Index LD50/ED100 (mice): > 25
- LD50 at 240 h (in vivo): > 150 mg/kg

SMILES: CCCC(CCC)(CCC)N1CC1 [Compound 40, N,n-ethylene-1,1-di-n-propyl-n-butylamine]
- Inhibition of the neuroleptic-induced catatonia ([4]; 6 mg/kg): 1 (represents 20 to 30% inhibition of catatonia in comparison with the controls (namely a score of 7 to 8 per studied batch))
- Inhibition of the neuroleptic-induced catatonia ([4]; 12 mg/kg): 3 (represents 70 to 80% inhibition of catatonia in comparison with the controls (namely a score of 2 or 3 per studied batch))
- Inhibition of reserpine-induced catatonia ([5]; oral, 6 mg/kg): 2 (represents 50% inhibition of catatonia in comparison with the controls (namely a score of 5 per studied batch))
- Index LD50/ED20-30 (mice): > 25
- LD50 at 240 h (in vivo): > 150 mg/kg

SMILES: CCCC(CCC)(CCC)NCCO [Compound 43, N-(2-hydroxyethyl)-1,1-di-n-propyl-n-butylamine]
- Inhibition of the neuroleptic-induced catatonia ([4]; 6.5 mg/kg): 1 (represents 20 to 30% inhibition of catatonia in comparison with the controls (namely a score of 7 to 8 per studied batch))
- Index LD50/ED20-30 (mice): 23
- LD50 at 240 h (in vivo): 150 mg/kg
